According to paper PMC12435690, “KYLO-0603, a novel liver-targeting, thyroid hormone receptor-β agonist for the inhibition of MASH progression” (PLOS One, 2025):

Assays:
[1] = 28-day repeated-dose toxicity study in cynomolgus monkeys; assay type: in vivo
Protocol: To evaluate the preclinical safety profile of Kylo-0603, a novel liver-targeted thyroid hormone receptor β (TRβ) agonist with therapeutic potential, systematic toxicological assessments were conducted in both non-human primates (cynomolgus monkeys) and rodents (Sprague-Dawley rats). […] The no-observed-adverse-effect level (NOAEL) was determined to be 1.5 mg/kg/day. Collectively, these independent toxicological investigations substantiate Kylo-0603’s favorable safety, providing rigorous preclinical support for clinical advancement.

[2] = system: HFD-induced obese mice; test: HFD-induced obese mice, oral once daily treatment; details: for fat content reduction / increase in the percentage of lean mass / reduction in Chol level / reduction in LDL-C level: vs HFD control; for Ballooning score / Fibrosis Score / Lobular inflammation score / NAFLD activity score / Steatosis score: DIO mice, HFD
Protocol: Experiments were performed on 112 (n = 16/group) male C57BL/6J mice (5 weeks). After 3 days of acclimatization, the animals were randomly divided according to body weight into a control group (Chow Diet) and a HFD group (HFD, 60% calories as fat, Cat# D12492, Research Diet, Jiangsu Xietong Pharmaceutical Bioengineering Co., Ltd.). The mice were fed with the corresponding diets for 16 weeks (with bedding shavings and a high-fat diet changed twice a week), during which the bedding shavings and high-fat diet (HFD) were refreshed twice weekly (see S1 Fig). Body weights were recorded on a weekly basis throughout this period. […] A separate cohort of mice, fed a standard chow diet, served as normal controls and received daily oral gavages of the vehicle. At the end of the experiment, the mice were fasted for 6 hours and then sacrificed. The animals were euthanized by CO2 inhalation and blood were collected along with liver and heart tissues. Collected blood samples were centrifuged to obtain the serum for the detection of cholesterol, triglyceride, and low-density lipoprotein cholesterol. The heart and liver tissues were weighed and photographed. The livers and hearts of the mice were rapidly removed and washed with cold saline. Half of the left lobe of liver was fixed in 4% neutral paraformaldehyde, and the remaining part of livers and hearts were snap-frozen and stored at −80°C for further analysis. The concentrations of serum lipids and liver enzymes from orbital or cardiac blood were determined by measuring triglycerides (TG), cholesterol (Chol), Low-density lipoprotein cholesterol (LDL-C), alanine transaminase (ALT), and aspartate transaminase (AST) levels using a Hitachi 7020 automated hematology laboratory and a Wako kit.
The dewaxed tissue slides were incubated in the alcohol-free hematoxylin staining solution for a period of 3–5 minutes, followed by thorough rinsing with running tap water. The slides were then subjected to differentiated and bluing for several seconds, after which they underwent sequential dehydration through a series of ethanol solutions with increasing concentrations (50%, 70%, 85%, and 95%). They were then subjected to eosin staining for a period of 5–10 minutes. The slides were then dehydrated sequentially with 95%, 100%, and 100% ethanol before being cleared with xylene. Finally, the slides were sealed with neutral gum, dried, and imaged.
The frozen sections were immersed in 60% isopropyl alcohol for 3–5 minutes, followed by immersion in Oil Red staining solution for 3–5 minutes. The samples were then washed with pure water. Following a wash with pure water, the nuclei were restained with hematoxylin, after which the sections were sealed with 50% glycerol, dried and photographed for imaging.
The dewaxed slides were rinsed in running water, stained with Sirius Red for 8–10 minutes, washed slightly in anhydrous ethanol, dehydrated, made transparent by gradient ethanol and xylene, and finally sealed with neutral gum, dried and photographed for imaging.

[3] = system: MASH mouse models (F2 ~ 3); test: SHG/TPEF microscopy of liver fibrosis and steatosis in MASH mouse models; assay type: in vivo, C57BL/6J mice; details: for SHG fibrosis percentage / percentage of steatosis: 8 weeks; for SHG fibrosis percentage: control 4.36%; for percentage of steatosis: control 21.66%
Protocol: Scanning was conducted on a Genesis® machine, a stain-free TPE/SHG microscopic imaging device manufactured in-house by HistoIndex®, Singapore. The region of interest (ROI) is systematically partitioned into uniformly sized, termed “blocks,” each measuring of 200 μm × 200 μm. These blocks were sequentially imaged individually and in sequence in raster scan mode utilizing a 20x objective lens. Each block has a resolution of 512 × 512 pixels, or 0.4 μm per pixel. Software developed by HistoIndex and Chipmap for image analysis identifies the different lobular regions, the central vein, the confluent region, and the perisinus region. Fibrosis and steatosis in these regions were subsequently measured and quantified in the SHG and TPE images.
As a fundamental component of clinical prognosis in MASH, a precise evaluation of hepatic fibrosis is very crucial. Artificial intelligence-assisted second harmonic generation/two-photon excitation fluorescence (SHG/TPEF) microscopy technique has been introduced because the existing scoring systems are insufficient for capturing the process of hepatic fibrosis regression. This offers a consistent and very precise way to evaluate the pathological characteristics of MASH, especially the serial measurement of collagen fibers and hepatic fibrosis. In this study, we employed second harmonic generation/two-photon excited fluorescence (SHG/TPEF) microscopy integrated with digital image analysis to evaluate liver tissue sections across a larger tissue area from MASH mouse models (F2–F3). This approach enabled systematic analysis of the effects of Kylo-0603 on arresting the progression of hepatic steatosis and fibrosis of liver tissue.
Through quantitative analysis of SHG/TPEF imaging datasets, we conducted a detailed assessment of the specific impacts of varying Kylo-0603 dosages (0.1 mg/kg, 0.3 mg/kg, 1 mg/kg, 3 mg/kg, and 10 mg/kg) on fibrogenesis and steatosis in F2–F3 MASH mouse models. The key findings are systematically summarized as follows: […]

[4] = Metabolic stability in plasma (cynomolgus monkeys); details: cynomolgus monkey
Protocol: (§1) We evaluated the metabolic stability of Kylo-0603 in the plasma of CD-1 mice, Sprague–Dawley (SD) rats, beagle dogs, cynomolgus monkeys, and humans. The plasma from the five species was mixed with Kylo-0603 (2 μM) and incubated at 37°C in a thermostatic water tank. The plasma concentrations of Kylo-0603 were monitored via LC-MS/MS at 0, 10, 30, 60, and 120 min.

[5] = in vitro; details: beagle, dog, plasma
Protocol: as §1

[6] = Metabolic stability in plasma (CD-1 mice)
Protocol: as §1

[7] = in vitro; details: human, plasma
Protocol: as §1

SMILES: CC(=O)N[C@H]1[C@H](OCCCCCCNC(=O)CCOCC(COCCC(=O)NCCCCCCO[C@@H]2O[C@H](CO)[C@H](O)[C@H](O)[C@H]2NC(C)=O)(COCCC(=O)NCCCCCCO[C@@H]2O[C@H](CO)[C@H](O)[C@H](O)[C@H]2NC(C)=O)NC(=O)CCCCCNC(=O)COc2cc(C)c(Cc3ccc(O)c(C(C)C)c3)c(C)c2)O[C@H](CO)[C@H](O)[C@@H]1O [Kylo-0603]
- perturbations of the hypothalamic-pituitary-thyroid (HPT) axis ([1]; cynomolgus monkeys): no perturbations
- macroscopic lesions or histopathological changes ([1]; oral 0.5, 1 and 5 mg/kg per day, 28 days, 56-day recovery): no macroscopic lesions or histopathological changes
- body weight reduction vs HFD control group ([2]; 0.1 mg/kg PO once daily, 10 weeks): 0.8%
- fat content reduction ([2]; 0.1 mg/kg, 8 weeks): 8.96%
- increase in the percentage of lean mass ([2]; 0.1 mg/kg, 8 weeks): 5.32%
- reduction in Chol level ([2]; 0.1 mg/kg, 10 weeks): 30.6%
- reduction in LDL-C level ([2]; 0.1 mg/kg, 10 weeks): 58.0%
- body weight reduction vs HFD control group ([2]; 0.3 mg/kg PO once daily, 10 weeks): 4.8%
- fat content reduction ([2]; 0.3 mg/kg, 8 weeks): 9.16%
- increase in the percentage of lean mass ([2]; 0.3 mg/kg, 8 weeks): 10.95%
- reduction in Chol level ([2]; 0.3 mg/kg, 10 weeks): 35.9%
- reduction in LDL-C level ([2]; 0.3 mg/kg, 10 weeks): 72.7%
- body weight reduction vs HFD control group ([2]; 1 mg/kg PO once daily, 10 weeks): 3.8%
- fat content reduction ([2]; 1 mg/kg, 8 weeks): 14.07%
- increase in the percentage of lean mass ([2]; 1 mg/kg, 8 weeks): 13.52%
- reduction in Chol level ([2]; 1 mg/kg, 10 weeks): 47.9%
- reduction in LDL-C level ([2]; 1 mg/kg, 10 weeks): 81.8%
- average reduction of triglyceride content in liver homogenates ([2]; 3 mg/kg): up to 36.4%
- body weight reduction vs HFD control group ([2]; 3 mg/kg PO once daily, 10 weeks): 13.1%
- reduction in Chol level ([2]; 3 mg/kg, 2 weeks): 52.0%
- reduction in LDL-C level ([2]; 3 mg/kg, 2 weeks): 84.0%
- fat content reduction ([2]; 3 mg/kg, 8 weeks): 26.15%
- increase in the percentage of lean mass ([2]; 3 mg/kg, 8 weeks): 21.94%
- reduction in Chol level ([2]; 3 mg/kg, 10 weeks): 53.9%
- reduction in LDL-C level ([2]; 3 mg/kg, 10 weeks): 79.7%
- body weight reduction vs HFD control group ([2]; 10 mg/kg PO once daily, 10 weeks): 15.8%
- reduction in Chol level ([2]; 10 mg/kg, 2 weeks): 64.5%
- reduction in LDL-C level ([2]; 10 mg/kg, 2 weeks): 85.8%
- fat content reduction ([2]; 10 mg/kg, 8 weeks): 44.35%
- increase in the percentage of lean mass ([2]; 10 mg/kg, 8 weeks): 37.91%
- reduction in Chol level ([2]; 10 mg/kg, 10 weeks): 69.2%
- reduction in LDL-C level ([2]; 10 mg/kg, 10 weeks): 88.2%
- body length ([2]; 0.1-10 mg/kg, 8 weeks): not affected
- bone density ([2]; 0.1-10 mg/kg, 8 weeks): not affected
- cholesterol content in liver homogenates ([2]; 2 and 10 weeks): did not exert a notable influence
- Ballooning score ([2]; 0.1 mg/kg, 8 weeks): 1.6 ± 0.5
- Fibrosis Score ([2]; 0.1 mg/kg, 8 weeks): 0.6 ± 0.5
- Lobular inflammation score ([2]; 0.1 mg/kg, 8 weeks): 1.0 ± 0.0
- NAFLD activity score ([2]; 0.1 mg/kg, 8 weeks): 5.0 ± 0.9
- Steatosis score ([2]; 0.1 mg/kg, 8 weeks): 2.4 ± 1.1
- Ballooning score ([2]; 0.3 mg/kg, 8 weeks): 1.4 ± 0.5
- Fibrosis Score ([2]; 0.3 mg/kg, 8 weeks): 0.4 ± 0.5
- Lobular inflammation score ([2]; 0.3 mg/kg, 8 weeks): 1.3 ± 0.5
- NAFLD activity score ([2]; 0.3 mg/kg, 8 weeks): 4.6 ± 1.2
- Steatosis score ([2]; 0.3 mg/kg, 8 weeks): 2.0 ± 1.4
- Ballooning score ([2]; 1 mg/kg, 8 weeks): 1.8 ± 0.5
- Fibrosis Score ([2]; 1 mg/kg, 8 weeks): 0.4 ± 0.5
- Lobular inflammation score ([2]; 1 mg/kg, 8 weeks): 1.1 ± 0.4
- NAFLD activity score ([2]; 1 mg/kg, 8 weeks): 4.4 ± 1.1
- Steatosis score ([2]; 1 mg/kg, 8 weeks): 1.5 ± 0.8
- Ballooning score ([2]; 3 mg/kg, 8 weeks): 1.1 ± 1.0
- Fibrosis Score ([2]; 3 mg/kg, 8 weeks): 0.4 ± 0.5
- Lobular inflammation score ([2]; 3 mg/kg, 8 weeks): 1.1 ± 0.4
- NAFLD activity score ([2]; 3 mg/kg, 8 weeks): 3.4 ± 2.1
- Steatosis score ([2]; 3 mg/kg, 8 weeks): 1.1 ± 1.0
- Ballooning score ([2]; 10 mg/kg, 8 weeks): 1.0 ± 0.9
- Fibrosis Score ([2]; 10 mg/kg, 8 weeks): 0.3 ± 0.5
- Lobular inflammation score ([2]; 10 mg/kg, 8 weeks): 1.0 ± 0.0
- NAFLD activity score ([2]; 10 mg/kg, 8 weeks): 3.2 ± 1.3
- Steatosis score ([2]; 10 mg/kg, 8 weeks): 1.2 ± 0.8
- liver weight ([2]; all dose groups (0.1-10 mg/kg), 10 weeks): significantly decreased
- effect on heart weight ([2]; various doses (0.1-10 mg/kg), 10 weeks): not significant
- SHG fibrosis percentage ([3]; 0.1 mg/kg): 2.92%
- percentage of steatosis ([3]; 0.1 mg/kg): 5.07%
- SHG fibrosis percentage ([3]; 0.3 mg/kg): 2.12%
- percentage of steatosis ([3]; 0.3 mg/kg): 4.39%
- SHG fibrosis percentage ([3]; 1 mg/kg): 2.16%
- percentage of steatosis ([3]; 1 mg/kg): 4.19%
- SHG fibrosis percentage ([3]; 3 mg/kg): 2.03%
- percentage of steatosis ([3]; 3 mg/kg): 2.22%
- reduction of steatosis vs control group ([3]; 10 mg/kg): 90%
- SHG fibrosis percentage ([3]; 10 mg/kg): 1.86%
- plasma stability [4]: stable
- half-life at 2 μM [5]: 5.93 h
- plasma stability [6]: stable
- half-life at 2 μM [7]: > 6.21 h
